Measured values reported in patent US12208088B2 (Genentech, Inc., priority 2018, dated 2025).

The compounds below were run against HPK1 (Homo sapiens (Human), UniProt Q92918) (assay: HPK1 Lantha binding assay ("Lanth")). Conditions: binding assays; Morrison Ki fit.
Sequence of HPK1 (Q92918 1-346 limits assumed): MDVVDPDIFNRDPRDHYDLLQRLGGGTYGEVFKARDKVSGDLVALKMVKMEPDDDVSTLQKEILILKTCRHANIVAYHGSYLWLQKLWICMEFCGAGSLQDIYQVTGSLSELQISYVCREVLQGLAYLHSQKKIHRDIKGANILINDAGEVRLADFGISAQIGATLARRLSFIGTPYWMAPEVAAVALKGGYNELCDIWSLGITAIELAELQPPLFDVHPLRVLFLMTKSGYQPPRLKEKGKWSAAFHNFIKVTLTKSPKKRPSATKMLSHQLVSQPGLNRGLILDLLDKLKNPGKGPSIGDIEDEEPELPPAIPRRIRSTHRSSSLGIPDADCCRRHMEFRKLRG
Summary of the method: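 Ki values are from Morrison-equation fitting of 665/615 nm TR-FRET signals, taking enzyme level, tracer level and tracer Kd into account. The assay mix held HPK1 (2 nM), Eu-anti-GST antibody (2 nM) and Tracer222 (15 nM). Incubations were two 1 h steps at 23 °C, on 5-fold serial compound dilutions.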
Work on O=C1NCCN1c1cccc(-c2cnc3c(c2)C2(CC2)CN3)n1 [Compound 71, 1-(6-(1′,2′-Dihydrospiro[cyclopropane-1,3′-pyrrolo[2,3-b]pyridin]-5′-yl)pyridin-2-yl)imidazolidin-2-one] yielded a Ki of 115 nM.
In the case of c1cc(-c2cnc3c(c2)C2(CC2)CN3)cc(-c2nnn3c2CNCC3)c1 [Compound 72, 5′-(3-(4,5,6,7-Tetrahydro-[1,2,3]triazolo[1,5-a]pyrazin-3-yl)phenyl)-1′,2′-dihydrospiro[cyclopropane-1,3′-pyrrolo[2,3-b]pyridine]], the Ki is reported as 279 nM.
For O=C1NCCC1c1cccc(-c2cnc3c(c2Cl)C2(CC2)CN3)c1 (stereo not shown) [Compound 73], the Ki was 26.1 nM.
N#Cc1cc2c(-c3cnc4c(c3)C3(CC3)CN4)c[nH]c2cc1F [Compound 74] gave a Ki of 31 nM.
Compound CN(C)C(=O)c1c(N)ccc(-c2cnc3c(c2Cl)C2(CCC(N(C)CC(N)=O)C2)CN3)c1F (stereo not shown) [Compound 75, 6-Amino-3-(3-((2-amino-2-oxoethyl)(methyl)amino)-4′-chloro-1′,2′-dihydrospiro[cyclopentane-1,3′-pyrrolo[2,3-b]pyridin]-5′-yl)-2-fluoro-N,N-dimethylbenzamide] has a Ki of 251 nM.
CN(C)C(=O)c1c(N)ccc(-c2cnc3c(c2Cl)C2(CCC(NCC(N)=O)C2)CN3)c1F (stereo not shown) [Compound 76, 6-Amino-3-(3-((2-amino-2-oxoethyl)amino)-4′-chloro-1′,2′-dihydrospiro[cyclopentane-1,3′-pyrrolo[2,3-b]pyridin]-5′-yl)-2-fluoro-N,N-dimethylbenzamide] showed a Ki of 490 nM.
CN(C)C(=O)c1c(N)ccc(-c2cnc3c(c2)[C@]2(CN3)C[C@H](O)C2)c1F [Compound 77a, 6-Amino-2-fluoro-3-((1r,3r)-3-hydroxy-1′,2′-dihydrospiro[cyclobutane-1,3′-pyrrolo[2,3-b]pyridin]-5′-yl)-N,N-dimethylbenzamide] was tested, and the Ki was 160 nM.
Compound CN(C)C(=O)c1c(N)ccc(-c2cnc3c(c2)[C@]2(CN3)C[C@@H](O)C2)c1F [Compound 77b, 6-Amino-2-fluoro-3-((1s,3s)-3-hydroxy-1′,2′-dihydrospiro[cyclobutane-1,3′-pyrrolo[2,3-b]pyridin]-5′-yl)-N,N-dimethylbenzamide] has a Ki of 217 nM.
CN(C)C(=O)c1c(N)ccc(-c2cnc3c(c2)[C@]2(CN3)C[C@](C)(O)C2)c1F [Compound 78a, 6-Amino-2-fluoro-3-((1r,3r)-3-hydroxy-3-methyl-1′,2′-dihydrospiro[cyclobutane-1,3′-pyrrolo[2,3-b]pyridin]-5′-yl)-N,N-dimethylbenzamide] showed a Ki of 927 nM.
In the case of CN(C)C(=O)c1c(N)ccc(-c2cnc3c(c2)[C@]2(CN3)C[C@@](C)(O)C2)c1F [Compound 78b, 6-Amino-2-fluoro-3-((1s,3s)-3-hydroxy-3-methyl-1′,2′-dihydrospiro[cyclobutane-1,3′-pyrrolo[2,3-b]pyridin]-5′-yl)-N,N-dimethylbenzamide], the Ki is reported as 165 nM.
With CN(C)C(=O)c1c(N)ccc(-c2cnc3c(c2)C2(CNC(=O)C2)CN3)c1F (stereo not shown) [Compound 79, 6-Amino-2-fluoro-N,N-dimethyl-3-(5-oxo-1′,2′-dihydrospiro[pyrrolidine-3,3′-pyrrolo[2,3-b]pyridin]-5′-yl)benzamide] the Ki was 659 nM.
Work on CO[C@H]1C[C@]2(CNc3ncc(-c4ccc(N)c(C(=O)N(C)C)c4F)c(Cl)c32)C1 [Compound 80a, 6-Amino-3-((1r,3r)-4′-chloro-3-methoxy-1′,2′-dihydrospiro[cyclobutane-1,3′-pyrrolo[2,3-b]pyridin]-5′-yl)-2-fluoro-N,N-dimethylbenzamide] yielded a Ki of 97.6 nM.
For CO[C@H]1C[C@@]2(CNc3ncc(-c4ccc(N)c(C(=O)N(C)C)c4F)c(Cl)c32)C1 [Compound 80b, 6-Amino-3-((1s,3s)-4′-chloro-3-methoxy-1′,2′-dihydrospiro[cyclobutane-1,3′-pyrrolo[2,3-b]pyridin]-5′-yl)-2-fluoro-N,N-dimethylbenzamide], the Ki was 129 nM.
